Source: patent publication US6835323B2, “Aqueous hydraulic medium” (Kemira Oyj, priority 1999, dated 2004)
Converted amounts (≈) assume the structure as drawn.

Key:
[1] = test system: Pseudomonas putila bacterium; conditions: cited from earlier work
[2] = test system: various microbes of paper-industry waste paste; conditions: inoculated with microbes, within two days
Description: The test was conducted so that each solution to be investigated was taken into two plastic sample flasks, 60 ml into each. One of the two flasks was inoculated with 2 g of paper-industry waste paste containing various microbes, such paste being known as a favorable growth medium for microbes. After mixing, the samples were allowed to stand at room temperature for 2 days.
Culture tests were performed on the samples in a laboratory specialized in microbiologic assays.
The assay of aerobic bacteria was performed using a PCA substrate and incubation for 2 days at 37° C. For the assay of anaerobic bacteria, Brewer's agar and incubation for 2 days in anaerobic vessels at 37° C. were used. In the assay of slime-forming bacteria, PCA-agar+saccharose 50 g/l and incubation for 2 days at 37° C. were used. The slimy colonies were counted. Yeasts and molds were assayed using a Saboraud maltose agar substrate and incubation for 3-4 days at 30° C.

Row | Structure (SMILES) | EC 50 value [1] [µg/mL] | Effect on inoculated microbes [2]
1 | O=CO [formic acid] | 46.7 (≈ 1010 µM) | –
2 | O=C[O-].[K+] [potassium formate] | – | does not form a growth medium for microbes
3 | CCC(=O)O [propionic acid] | 59.6 (≈ 805 µM) | –
